System: HaCaT cells
Test: Retinoic acid treatment of bioprinted psoriasis-like skin model, CK10 immunofluorescence
Format: cell-based, human
Conditions: printed stripes of differentiated (cytokine-treated) and non-differentiated HaCaT cells; RA 1 μM in growth media for 20 hrs; versus solvent control

In the case of `CC1=C(/C=C/C(C)=C/C=C/C(C)=C/C(=O)O)C(C)(C)CCC1` [retinoic acid, all-trans retinoic acid], the “decrease in CK10 expression for the treated samples” value is reported as “approximately 20%”.
